Measured values published in PubChem BioAssay AID328 (DTP/NCI, 2004).
Values joined by “and” are separate entries in the source; they are usually repeats but may differ in a detail not shown here. Identical values can stand only once. Inconclusive results and toxic doses are left out.

Tested on: BDF1 mice, P388 leukemia ip, median survival T/C
Assay: NCI In Vivo Anticancer Drug Screen. Data for tumor model P388 Leukemia (intraperitoneal) in B6D2F1 (BDF1) mice
Settings: endpoint: median survival time, higher = longer survival
Outline: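 Mice carrying the transplantable tumour receive compound or vehicle. Survival is followed in each arm, and the treated measure is divided by the vehicle measure.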

[1] = dose: 50.0 mg/kg/injection, schedule: Q04DX003 (ip), vehicle: saline
[2] = dose: 100.0 mg/kg/injection, schedule: Q01DX009 (ip), vehicle: saline
[3] = dose: 100.0 mg/kg/injection, schedule: Q04DX003 (ip), vehicle: saline
[4] = dose: 25.0 mg/kg/injection, schedule: Q04DX003 (ip), vehicle: saline

CCOC(=O)/C(C)=C\c1c(C)[nH]c(=O)[nH]c1=O
T/C (dose: 50.0 mg/kg/injection, schedule: Q01DX009 (ip), vehicle: saline): 102 % of control
T/C [1]: 104 % of control
T/C [2]: 103 % of control
T/C [3]: 100 % of control
T/C (dose: 200.0 mg/kg/injection, schedule: Q01DX009 (ip), vehicle: saline): 99 % of control
T/C (dose: 200.0 mg/kg/injection, schedule: Q04DX003 (ip), vehicle: saline): 95 % of control and 100 % of control
T/C (dose: 400.0 mg/kg/injection, schedule: Q01DX009 (ip), vehicle: saline): 96 % of control
T/C (dose: 400.0 mg/kg/injection, schedule: Q04DX003 (ip), vehicle: saline): 91 % of control and 95 % of control

CC(C)(C)NC(=S)N/N=C/c1cc(Cl)cc(Cl)c1O
T/C (dose: 1.56 mg/kg/injection, schedule: Q01DX009 (ip), vehicle: saline with Tween-80): 94 % of control
T/C (dose: 3.12 mg/kg/injection, schedule: Q01DX009 (ip), vehicle: saline with Tween-80): 100 % of control
T/C (dose: 6.25 mg/kg/injection, schedule: Q01DX009 (ip), vehicle: saline with Tween-80): 99 % of control

Nc1ncnc2c1ncn2C1OC(CO)C(O)C1O (stereo not given)
T/C (dose: 1.56 mg/kg/injection, schedule: Q#A X018 (ip), vehicle: saline with Tween-80): 113 % of control
T/C (dose: 3.13 mg/kg/injection, schedule: Q#A X018 (ip), vehicle: saline with Tween-80): 100 % of control
T/C (dose: 6.25 mg/kg/injection, schedule: Q#A X018 (ip), vehicle: saline with Tween-80): 100 % of control
T/C (dose: 10.0 mg/kg/injection, schedule: Q01DX009 (ip), vehicle: saline with Tween-80): 105 % of control
T/C (dose: 12.5 mg/kg/injection, schedule: Q#A X018 (ip), vehicle: saline with Tween-80): 109 % of control
T/C (dose: 14.0 mg/kg/injection, schedule: Q01DX009 (ip), vehicle: saline): 120 % of control
T/C (dose: 20.0 mg/kg/injection, schedule: Q01DX009 (ip), vehicle: saline with Tween-80): 91 % of control and 100 % of control
T/C [4]: 109 % of control
T/C (dose: 40.0 mg/kg/injection, schedule: Q01DX009 (ip), vehicle: saline with Tween-80): 114 % of control and 122 % of control
T/C [1]: 113 % of control
T/C (dose: 78.0 mg/kg/injection, schedule: Q01DX009 (ip), vehicle: saline with Tween-80): 178 % of control
T/C (dose: 78.6 mg/kg/injection, schedule: Q01DX005 (ip), vehicle: water): 108 % of control
T/C (dose: 78.6 mg/kg/injection, schedule: Q01DX009 (ip), vehicle: water): 102 % of control
T/C [3]: 109 % of control
T/C (dose: 110.0 mg/kg/injection, schedule: Q03HX024 (ip), vehicle: saline with Tween-80): 184 % of control
T/C (dose: 118.0 mg/kg/injection, schedule: Q01DX005 (ip), vehicle: water): 114 % of control
T/C (dose: 118.0 mg/kg/injection, schedule: Q01DX009 (ip), vehicle: saline with Tween-80): 165 % of control
T/C (dose: 118.0 mg/kg/injection, schedule: Q01DX009 (ip), vehicle: water): 105 % of control
T/C (dose: 160.0 mg/kg/injection, schedule: Q01DX009 (ip), vehicle: saline with Tween-80): 151 % of control and 185 % of control
T/C (dose: 160.0 mg/kg/injection, schedule: Q03HX024 (ip), vehicle: saline with Tween-80): 206 % of control
T/C (dose: 177.0 mg/kg/injection, schedule: Q01DX005 (ip), vehicle: water): 111 % of control
T/C (dose: 177.0 mg/kg/injection, schedule: Q01DX009 (ip), vehicle: saline with Tween-80): 156 % of control and 169 % of control
T/C (dose: 177.0 mg/kg/injection, schedule: Q01DX009 (ip), vehicle: water): 112 % of control
T/C (dose: 240.0 mg/kg/injection, schedule: Q03HX024 (ip), vehicle: saline with Tween-80): 228 % of control
T/C (dose: 266.0 mg/kg/injection, schedule: Q01DX005 (ip), vehicle: water): 117 % of control
T/C (dose: 266.0 mg/kg/injection, schedule: Q01DX009 (ip), vehicle: saline with Tween-80): 156 % of control and 166 % of control
T/C (dose: 266.0 mg/kg/injection, schedule: Q01DX009 (ip), vehicle: water): 117 % of control
T/C (dose: 320.0 mg/kg/injection, schedule: Q01DX009 (ip), vehicle: saline with Tween-80): 185 % of control
T/C (dose: 400.0 mg/kg/injection, schedule: Q01DX005 (ip), vehicle: water): 117 % of control
T/C (dose: 400.0 mg/kg/injection, schedule: Q01DX009 (ip), vehicle: water): 114 % of control
T/C (dose: 900.0 mg/kg/injection, schedule: Q01DX009 (ip), vehicle: saline with Tween-80): 155 % of control and 156 % of control

CCCCC(CC)(CC(=O)O)CC(=O)O
T/C (dose: 40.0 mg/kg/injection, schedule: Q01DX010 (ip), vehicle: water): 118 % of control

O=C1C=C(N2CC2)c2ccccc2C1=O
T/C (dose: 2.5 mg/kg/injection, schedule: Q01DX009 (ip), vehicle: Klucel (hydroxypropylcellulose) (HPC)): 100 % of control
T/C (dose: 5.0 mg/kg/injection, schedule: Q01DX009 (ip), vehicle: Klucel (hydroxypropylcellulose) (HPC)): 90 % of control
T/C (dose: 10.0 mg/kg/injection, schedule: Q01DX009 (ip), vehicle: Klucel (hydroxypropylcellulose) (HPC)): 104 % of control
T/C (dose: 11.0 mg/kg/injection, schedule: Q04DX003 (ip), vehicle: saline with Tween-80): 109 % of control
T/C (dose: 16.5 mg/kg/injection, schedule: Q04DX003 (ip), vehicle: saline with Tween-80): 104 % of control
T/C (dose: 20.0 mg/kg/injection, schedule: Q01DX009 (ip), vehicle: Klucel (hydroxypropylcellulose) (HPC)): 104 % of control
T/C (dose: 25.0 mg/kg/injection, schedule: Q04DX003 (ip), vehicle: saline with Tween-80): 118 % of control

C=CCN1/C(=C/C=C\c2sc3ccccc3[n+]2CC=C)Sc2ccccc21
T/C (dose: 0.12 mg/kg/injection, schedule: Q01DX009 (ip), vehicle: saline): 100 % of control
T/C (dose: 0.25 mg/kg/injection, schedule: Q04DX003 (ip), vehicle: Klucel (hydroxypropylcellulose) (HPC)): 175 % of control
T/C (dose: 0.5 mg/kg/injection, schedule: Q04DX003 (ip), vehicle: Klucel (hydroxypropylcellulose) (HPC)): 115 % of control
T/C (dose: 1.0 mg/kg/injection, schedule: Q01DX009 (ip), vehicle: saline): 154 % of control
T/C (dose: 1.0 mg/kg/injection, schedule: Q01DX010 (ip), vehicle: saline): 123 % of control
T/C (dose: 1.0 mg/kg/injection, schedule: Q04DX003 (ip), vehicle: Klucel (hydroxypropylcellulose) (HPC)): 110 % of control
T/C (dose: 63.0 micrograms/kg/injection, schedule: Q01DX010 (ip), vehicle: saline): 90 % of control
T/C (dose: 125.0 micrograms/kg/injection, schedule: Q01DX010 (ip), vehicle: saline): 90 % of control
T/C (dose: 250.0 micrograms/kg/injection, schedule: Q01DX010 (ip), vehicle: saline): 90 % of control

Cc1cccc(Br)[n+]1[O-]
T/C (dose: 25.0 mg/kg/injection, schedule: Q01DX009 (ip), vehicle: saline): 90 % of control
T/C [4]: 95 % of control
T/C (dose: 50.0 mg/kg/injection, schedule: Q01DX001 (ip), vehicle: saline): 100 % of control
T/C [2]: 95 % of control
T/C [3]: 95 % of control
T/C (dose: 200.0 mg/kg/injection, schedule: Q01DX001 (ip), vehicle: saline): 100 % of control

Cc1ccc(S(=O)(=O)NC(=O)C2C(=O)CC3(CCCCC3)CC2=O)cc1
T/C (dose: 50.0 mg/kg/injection, schedule: Q01DX009 (ip), vehicle: Klucel (hydroxypropylcellulose) (HPC)): 109 % of control
T/C (dose: 100.0 mg/kg/injection, schedule: Q01DX009 (ip), vehicle: Klucel (hydroxypropylcellulose) (HPC)): 118 % of control

N=C(N)c1ccc(/C=C/c2ccc(C(=N)N)cc2)cc1
T/C (dose: 12.5 mg/kg/injection, schedule: Q01DX009 (ip), vehicle: Klucel (hydroxypropylcellulose) (HPC)): 118 % of control
T/C (dose: 16.5 mg/kg/injection, schedule: Q01DX009 (ip), vehicle: Klucel (hydroxypropylcellulose) (HPC)): 116 % of control and 118 % of control
T/C (dose: 37.5 mg/kg/injection, schedule: Q01DX009 (ip), vehicle: Klucel (hydroxypropylcellulose) (HPC)): 150 % of control

NC1=NCC(CSc2ccc(Cl)c(Cl)c2)O1 (stereo not given)
T/C (dose: 50.0 mg/kg/injection, schedule: Q04DX002 (ip), vehicle: saline + Tween-80 + alcohol): 95 % of control
T/C (dose: 100.0 mg/kg/injection, schedule: Q04DX002 (ip), vehicle: saline + Tween-80 + alcohol): 101 % of control
T/C (dose: 200.0 mg/kg/injection, schedule: Q04DX002 (ip), vehicle: saline + Tween-80 + alcohol): 95 % of control

NC(N)=Nc1ccc(C(=O)Oc2c(Cl)cc([N+](=O)[O-])cc2Cl)cc1
T/C (dose: 0.18 mg/kg/injection, schedule: Q01DX009 (ip), vehicle: saline): 94 % of control
T/C (dose: 0.39 mg/kg/injection, schedule: Q01DX009 (ip), vehicle: saline): 92 % of control
T/C (dose: 0.78 mg/kg/injection, schedule: Q01DX009 (ip), vehicle: saline): 96 % of control
T/C (dose: 1.56 mg/kg/injection, schedule: Q01DX009 (ip), vehicle: saline): 102 % of control
T/C (dose: 3.12 mg/kg/injection, schedule: Q01DX009 (ip), vehicle: saline): 86 % of control
T/C [1]: 95 % of control
T/C [3]: 113 % of control
